Results on 12 compounds are retold here after ChEMBL document CHEMBL2311273, “Discovery of potent, selective multidrug and toxin extrusion transporter 1 (MATE1, SLC47A1) inhibitors through prescription drug profiling and computational modeling” (J Med Chem, 2013).

Data set [1] concerns the target T1, Solute carrier family 22 member 3 (Homo sapiens, UniProt O75751).
T1 sequence (O75751 whole entry): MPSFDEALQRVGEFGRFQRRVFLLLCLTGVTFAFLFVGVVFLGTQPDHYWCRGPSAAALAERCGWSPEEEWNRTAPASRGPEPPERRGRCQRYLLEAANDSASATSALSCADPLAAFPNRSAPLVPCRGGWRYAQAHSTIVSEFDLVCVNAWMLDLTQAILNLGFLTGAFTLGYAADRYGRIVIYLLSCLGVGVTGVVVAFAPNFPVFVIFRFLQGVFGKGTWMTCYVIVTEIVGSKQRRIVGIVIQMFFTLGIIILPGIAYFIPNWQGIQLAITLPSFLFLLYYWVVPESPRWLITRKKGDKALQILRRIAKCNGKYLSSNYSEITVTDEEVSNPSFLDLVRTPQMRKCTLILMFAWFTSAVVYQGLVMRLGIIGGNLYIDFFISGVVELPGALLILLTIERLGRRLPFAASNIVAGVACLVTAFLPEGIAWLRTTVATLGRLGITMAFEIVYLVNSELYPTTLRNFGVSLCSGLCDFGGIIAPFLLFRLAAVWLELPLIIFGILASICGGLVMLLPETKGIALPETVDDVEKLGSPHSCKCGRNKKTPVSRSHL
The data set is described as follows: Inhibition of human OCT3-mediated ASP+ uptake expressed in HEK293 cells after 3 mins by fluorescence assay. It counts as cell-based.

Data set [2] concerns the target T2, Solute carrier family 22 member 1 (Homo sapiens, UniProt O15245).
T2 sequence (O15245 whole entry): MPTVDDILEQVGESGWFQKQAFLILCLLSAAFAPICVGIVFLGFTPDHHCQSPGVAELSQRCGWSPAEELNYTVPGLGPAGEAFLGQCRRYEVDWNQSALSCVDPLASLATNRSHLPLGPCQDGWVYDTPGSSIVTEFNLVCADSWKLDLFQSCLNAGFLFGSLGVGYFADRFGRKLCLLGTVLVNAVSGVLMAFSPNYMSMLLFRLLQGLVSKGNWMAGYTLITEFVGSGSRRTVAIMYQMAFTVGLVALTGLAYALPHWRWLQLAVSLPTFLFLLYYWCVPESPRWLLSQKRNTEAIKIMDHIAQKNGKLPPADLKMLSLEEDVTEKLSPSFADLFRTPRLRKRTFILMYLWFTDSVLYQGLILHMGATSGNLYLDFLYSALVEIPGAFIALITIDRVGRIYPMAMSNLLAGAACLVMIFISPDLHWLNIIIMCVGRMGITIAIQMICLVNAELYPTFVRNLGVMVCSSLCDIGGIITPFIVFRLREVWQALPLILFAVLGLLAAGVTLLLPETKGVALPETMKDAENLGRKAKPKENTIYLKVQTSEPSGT
The data set is described as follows: Inhibition of human OCT1-mediated ASP+ uptake expressed in HEK293 cells after 3 mins by fluorescence assay. The format is cell-based.

Data set [3] addresses T3, Multidrug and toxin extrusion protein 2 (Homo sapiens, UniProt Q86VL8).
T3 sequence (Q86VL8 whole entry): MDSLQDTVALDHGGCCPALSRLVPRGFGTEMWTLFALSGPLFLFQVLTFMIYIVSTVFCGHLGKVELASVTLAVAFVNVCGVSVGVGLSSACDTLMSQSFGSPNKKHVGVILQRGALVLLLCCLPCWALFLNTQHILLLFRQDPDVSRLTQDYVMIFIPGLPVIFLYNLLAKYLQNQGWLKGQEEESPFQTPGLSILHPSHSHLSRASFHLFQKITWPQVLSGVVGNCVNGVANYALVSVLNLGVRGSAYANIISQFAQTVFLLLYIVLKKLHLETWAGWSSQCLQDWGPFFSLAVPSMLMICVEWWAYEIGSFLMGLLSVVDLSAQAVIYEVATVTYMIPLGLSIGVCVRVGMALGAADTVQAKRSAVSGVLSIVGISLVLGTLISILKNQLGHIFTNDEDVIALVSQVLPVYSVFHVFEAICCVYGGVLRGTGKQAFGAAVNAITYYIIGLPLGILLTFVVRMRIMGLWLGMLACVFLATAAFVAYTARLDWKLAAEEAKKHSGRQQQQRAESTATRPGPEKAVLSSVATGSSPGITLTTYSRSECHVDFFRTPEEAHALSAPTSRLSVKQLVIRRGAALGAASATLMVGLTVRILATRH
The data set is described as follows: Inhibition of human MATE2K-mediated ASP+ uptake expressed in HEK293 cells up to 500 uM after 1.5 mins by fluorescence assay. The format is cell-based. The settings on record: for INH: human, hek293, […].

Data set [4] concerns the target T4, Solute carrier family 22 member 2 (Homo sapiens, UniProt O15244).
T4 sequence (O15244 whole entry): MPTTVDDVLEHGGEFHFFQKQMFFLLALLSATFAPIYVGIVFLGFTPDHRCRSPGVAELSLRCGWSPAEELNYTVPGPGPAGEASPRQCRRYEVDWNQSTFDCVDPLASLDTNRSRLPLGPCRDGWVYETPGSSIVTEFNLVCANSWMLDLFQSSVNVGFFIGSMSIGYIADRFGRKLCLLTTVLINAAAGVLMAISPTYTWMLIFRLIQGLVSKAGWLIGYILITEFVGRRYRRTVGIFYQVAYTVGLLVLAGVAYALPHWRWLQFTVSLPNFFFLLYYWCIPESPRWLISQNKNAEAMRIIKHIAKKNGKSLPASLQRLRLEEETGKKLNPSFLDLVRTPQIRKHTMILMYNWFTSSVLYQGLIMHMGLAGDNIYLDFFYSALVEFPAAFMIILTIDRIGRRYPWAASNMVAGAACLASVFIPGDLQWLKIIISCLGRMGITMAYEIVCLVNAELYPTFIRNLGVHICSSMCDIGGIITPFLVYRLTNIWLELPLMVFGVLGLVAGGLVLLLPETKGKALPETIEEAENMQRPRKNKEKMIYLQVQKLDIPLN
The data set is described as follows: Inhibition of human OCT2-mediated ASP+ uptake expressed in HEK293 cells after 3 mins by fluorescence assay. The format is cell-based.

Data set [5] concerns the target T5, MATE1 (multidrug and toxin extrusion protein 1) (Homo sapiens, UniProt Q96FL8).
T5 sequence (Q96FL8 whole entry): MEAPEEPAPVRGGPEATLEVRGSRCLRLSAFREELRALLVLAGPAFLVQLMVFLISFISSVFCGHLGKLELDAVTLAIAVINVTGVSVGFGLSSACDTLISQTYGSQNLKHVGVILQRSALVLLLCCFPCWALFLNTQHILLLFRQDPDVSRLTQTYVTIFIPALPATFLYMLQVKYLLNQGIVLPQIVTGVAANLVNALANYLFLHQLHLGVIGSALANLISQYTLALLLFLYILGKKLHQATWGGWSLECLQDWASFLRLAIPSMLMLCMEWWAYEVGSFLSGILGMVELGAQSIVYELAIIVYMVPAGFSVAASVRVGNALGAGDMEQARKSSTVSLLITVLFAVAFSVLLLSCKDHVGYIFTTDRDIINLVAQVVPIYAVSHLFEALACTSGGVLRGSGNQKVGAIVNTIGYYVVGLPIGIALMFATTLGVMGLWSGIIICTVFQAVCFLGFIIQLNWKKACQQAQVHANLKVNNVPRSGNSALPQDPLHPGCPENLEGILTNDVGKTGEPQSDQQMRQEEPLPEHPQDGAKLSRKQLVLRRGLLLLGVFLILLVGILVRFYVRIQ
The data set is described as follows: (§1) Inhibition of human MATE1-mediated ASP+ uptake expressed in HEK293 cells at 20 uM after 1.5 mins by fluorescence assay. The format is cell-based. Particulars: HEK293 cells expressing human MATE1, probe ASP+; call rule not given here.

Data set [6] addresses T6, Multidrug and toxin extrusion protein 1 (Homo sapiens, UniProt Q96FL8).
T6 sequence (Q96FL8 whole entry): T5 sequence (Q96FL8 whole entry)
Description: Inhibition of human MATE1-mediated ASP+ uptake expressed in HEK293 cells after 1.5 mins by fluorescence assay. The format is cell-based.

For data set [7], the target named is T3, Multidrug and toxin extrusion protein 2. The data set is described as follows: Inhibition of human MATE2K-mediated ASP+ uptake expressed in HEK293 cells after 1.5 mins by fluorescence assay. It counts as cell-based.
Data set [8] can be described thus: Cmax in human at 40 mg, po after 7 days. The format is ADME, organism-based. Particulars: in vivo. Further details: dose 40 mg, route oral.
The target in data set [9] is T6, Multidrug and toxin extrusion protein 1. Description: Inhibition of human MATE1-mediated [14]-metformin uptake expressed in polarized MDCK2 cells after 5 mins by liquid scintillation counting analysis. It counts as cell-based, MDCK-II.
The target is the same in data set [10]. Description: Inhibition of human MATE1-mediated [14]-metformin uptake expressed in HEK293 cells after 1.5 mins by scintillation counting analysis. It counts as cell-based.
The nature of data set [11]: Cmax in iv dosed human. It counts as ADME, organism-based. Further details: route intravenous. The settings on record: in vivo.
Data set [12] addresses T6, Multidrug and toxin extrusion protein 1. Described as §1. The format is cell-based. Particulars: hek293, […], 20 µM.

Take `Cc1nccn1CC1CCc2c(c3ccccc3n2C)C1=O` (stereo unspecified) [ONDANSETRON]: the IC50 (commonly the concentration needed to halve the response being measured) is 17.4 µM in data set [1] and greater than 300 µM in [2].

For the compound `COc1ccccc1OCCNCC(O)COc1cccc2[nH]c3ccccc3c12` (stereo unspecified) [CARVEDILOL], in data set [3], the INH entry is given as “Not Active”. In addition, the figures for the half-inhibitory concentration (IC50) in data set [4] and in [6] were 7500 nM and 92.4 µM, respectively. The inhibition (usually the share of the control response that was lost under treatment) at […], 20 µM in [5] was 21%.

For `COc1ccc2c(c1OC)C(=O)O[C@@H]2[C@H]1c2c(cc3c(c2OC)OCO3)CCN1C` [NOSCAPINE], the INH result in data set [3] is “Not Active”. In [4], 2600 nM corresponded to half-maximal inhibition (IC50). Also, the inhibition at […], 20 µM in data set [5] was 13.4%.

Consider `NC(N)=Nc1nc(CSCCC(N)=NS(N)(=O)=O)cs1` [FAMOTIDINE], for which the IC50 was 10.7 µM in [1]; greater than 300 µM in data set [2]; 36100 nM in [4]; 36.2 µM in data set [7]; 0.76 µM in data set [6].

As to `CCc1c2c(nc3ccc(OC(=O)N4CCC(N5CCCCC5)CC4)cc13)-c1cc3c(c(=O)n1C2)COC(=O)[C@]3(O)CC` [IRINOTECAN], the IC50 in data set [1] turned out to be 74.6 µM; in data set [2], 20.8 µM; in [4], 2700 nM. Also, the inhibition at […], 20 µM in [5] is 49%.

Take `CC(C)(C)NC(=O)[C@@H]1CN(Cc2cccnc2)CCN1C[C@@H](O)C[C@@H](Cc1ccccc1)C(=O)N[C@H]1c2ccccc2C[C@H]1O`: the IC50 was greater than 500 µM in [1], 208 µM in data set [2] and 142000 nM in data set [4].

As to `COc1ccnc(C[S+]([O-])c2nc3ccc(OC(F)F)cc3[nH]2)c1OC` (stereo unspecified) [PANTOPRAZOLE], the peak level in [8] (Cmax) was 5.45 µM. Besides, the IC50 in data set [9] is 2800 nM; in [10] it was 2800 nM; in data set [3], 43.2 µM; in data set [1] it was 137 µM; in data set [2], greater than 500 µM; in [4] it was 1500 nM. The concentration for half-maximal inhibition (IC50) in data set [7] was greater than 500 µM; in [6] it was 43.2 µM.

Regarding `N=C(N)c1ccc(OCCCCCOc2ccc(C(=N)N)cc2)cc1` [PENTAMIDINE], the IC50 in [1] was 9.5 µM; in data set [2], 22.1 µM; in [4], 1200 nM.

Turning to `Cn1c(NCCN(CCO)CCCc2ccc([N+](=O)[O-])cc2)cc(=O)n(C)c1=O` [NIFEKALANT], in [11], the Cmax – broadly, the highest concentration seen after dosing – was 3.43 µM. In addition, the 50% inhibitory concentration (IC50) in data set [1] was 146 µM; in [2] it was greater than 300 µM; in [4] it was 10300 nM.

For the compound `Oc1c(Cl)cc(Cl)cc1Sc1cc(Cl)cc(Cl)c1O` [BITHIONOL], the 50% inhibitory concentration (IC50) in data set [1] is 5.5 µM; in data set [2] it was 3.9 µM; in [4], 1900 nM; in data set [7] it was 6.6 µM. Besides, the INH in data set [12] stood at 87%.

As for `[H]/N=C(\N/C(=N/[H])NCCCCCCNC(=N)NC(=N)Nc1ccc(Cl)cc1)Nc1ccc(Cl)cc1` [CHLORHEXIDINE], the IC50 in data set [1] amounted to 0.41 µM; in data set [2] it was 0.21 µM; in [4], 400 nM; in data set [7], 0.5 µM; in [6], 0.7 µM. This compound also displayed an INH in data set [12] of 86%.

With `O=C1c2c(O)ccc(O)c2C(=O)c2c(NCCNCCO)ccc(NCCNCCO)c21` [MITOXANTRONE], the figures for the 50% inhibitory concentration (IC50) in data set [1], in [2] and in data set [4] were 60.5 µM, 43.9 µM and 73300 nM, respectively.
